What is called chromatographic logP is lipophilicity estimated from chromatographic retention. Low values mean a more hydrophilic compound, high ones a more lipophilic compound.

Results on five molecules are retold here after patent publication US20170096504A1, “METHOD FOR PRODUCING FLUOROPOLYMER AQUEOUS DISPERSION LIQUID” (DAIKIN INDUSTRIES, LTD., priority 2014, published 2017).

Data set [1] can be described thus: Critical micelle concentration by surface tension measurement. The class given is physicochemical. From the text:
The critical micelle concentration may be determined by measuring the surface tension. The surface tension may be measured using a surface tensiometer CBVP-A3 (Kyowa Interface Science Co., Ltd.), for example.
The critical micelle concentration may be determined in accordance with “Environmental Science & Technology (2011)”, 45(19), 8120-8128 and the literature cited therein.

Data set [2] is described as follows: Log POW (1-octanol/water partition coefficient) by HPLC calibration.
Procedure: Log POW is a 1-octanol/water partition coefficient which is represented by Log P (wherein P is the ratio between the concentration of the fluorosurfactant in octanol and that in water in a phase-separated octanol/water (1:1) liquid mixture containing the fluorosurfactant).
Log POW is determined as follows. Specifically, HPLC is performed on standard substances (heptanoic acid, octanoic acid, nonanoic acid, and decanoic acid) each having a known octanol/water partition coefficient using TOSOH ODS-120T (φ4.6 mm×250 mm) as a column and acetonitrile/0.6 mass % HClO4 aqueous solution (=1/1 (vol/vol %)) as an eluent at a flow rate of 1.0 ml/min, a sample amount of 300 μL, and a column temperature of 40° C.; with a detection light of UV 210 nm. For each standard substance, a calibration curve is drawn with respect to the elution time and the known octanol/water partition coefficient. Based on this calibration curve, Log POW is calculated from the elution time of the sample liquid in HPLC.

Molecules are shown by their SMILES.

`N.O=C(O)C(F)(F)C(F)(F)C(F)(F)C(F)(F)C(F)(F)F` [CF3(CF2)4COONH4, ammonium perfluorohexanoate]: in data set [1], the critical micelle concentration was 56 g/L. Also, the chromatographic logP in data set [2] was 2.4.
In the same order, the values of `N.O=C(O)C(F)(OC(F)(F)C(F)(OC(F)(F)F)C(F)(F)F)C(F)(F)F` (centres unmarked) [CF3OCF(CF3)CF2OCF(CF3)COONH4, ammonium 2,3,3,3-tetrafluoro-2-[1,1,2,3,3,3-hexafluoro-2-(trifluoromethoxy)propoxy]-propanoate] are 22 g/L and 3.4.
In the same order, the values of `N.O=C(O)C(F)(F)C(F)(F)C(F)(F)C(F)(F)F` [CF3(CF2)3COONH4, ammonium perfluoropentanoate] are 82 g/L and 2.
For the molecule `N.O=C(O)C(F)(OC(F)(F)C(F)(F)C(F)(F)F)C(F)(F)F` (centres unmarked) [C3F7OCF(CF3)COONH4], in data set [1], the critical micelle concentration worked out at 48 g/L.
The same measure, in the same setting: the figure for `O=S(=O)(O)CCC(F)(F)C(F)(F)C(F)(F)C(F)(F)C(F)(F)C(F)(F)F` [C6F13(CH2)2SO3H] is 1 g/L.
